This note sets out measurements from patent US20250214969A1, “PROTEIN DEGRADERS AND USES THEREOF” (Kymera Therapeutics, Inc., priority 2022, published 2025).

The target of assay [1] is T1, truncated His-MBP-Tev-KLHDC2 (residues 1-363) (Homo sapiens, UniProt Q9Y2U9).
T1 construct: truncated His -MBP-Tev-KLHDC2 (residues 1-363) purified from E. coli; made in house; host or cells: E. coli
T1 sequence (Q9Y2U9 1-363): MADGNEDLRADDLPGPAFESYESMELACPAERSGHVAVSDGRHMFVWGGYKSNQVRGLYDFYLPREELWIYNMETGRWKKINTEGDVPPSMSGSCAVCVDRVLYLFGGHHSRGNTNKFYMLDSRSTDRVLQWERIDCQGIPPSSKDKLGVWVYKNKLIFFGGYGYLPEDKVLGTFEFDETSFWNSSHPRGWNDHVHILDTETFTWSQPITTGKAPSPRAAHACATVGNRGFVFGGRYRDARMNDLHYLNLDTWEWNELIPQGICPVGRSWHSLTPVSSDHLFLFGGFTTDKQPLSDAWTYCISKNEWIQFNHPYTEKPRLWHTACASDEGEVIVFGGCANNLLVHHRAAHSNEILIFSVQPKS
Briefly: KLHDC2 HTRF binding assay. Conditions: 1 nM KLHDC2 (residues 1-363), fluorescein-labeled diglycine peptide probe. (In general: In TR-FRET formats the signal depends on donor and acceptor labels being close together.)
Procedure: HTRF binding assays were performed using 1 nM truncated His -MBP-Tev-KLHDC2 (residues 1-363) purified from E. coli, 0.2 nM terbium-anti-His antibody (CisBio), 1 nM fluorescein-labeled diglycine peptide probe, and test compounds in assay buffer consisting of 50 mM HEPES-Na pH 7.5, 100 mM NaCl, 2 mM DTT, 0.005% Tween-20 with a final volume of 20 uL. Compound stocks were dissolved at 10 mM in 100% DMSO and 11 point titration with 3 fold serial dilution was performed in white, opaque 384 well microplates. Reaction plates were incubated at room temperature for 30 minutes. Plates were centrifuged at low rpm for 5 mins, and the ratio of fluorescence intensities were measured at emission wavelengths for fluorescein acceptor (520 nm) and terbium donor (495 nm) on Envision Plate reader. % Inhibition was calculated from the 520/495 ratio generated by the no protein controls for 100% inhibition and DMSO only reactions for 0l % inhibition.

Assay [2] addresses T1, truncated His-MBP-Tev-KLHDC2 (residues 1-363). Briefly: KLHDC2 FP competition binding assay. Conditions: 15 nM KLHDC2 (residues 1-363), 10 nM fluorescein-labeled diglycine peptide probe, read-out: KLHDC2 binding Human FP: average external IC50.
In the next assay the target is T2, BRD4 (Homo sapiens, UniProt O60885).
T2 construct: endogenous in cells; host or cells: HEK293
Briefly: BRD4 degradation in HEK293 cells (Western blot). Conditions: lysed after 24, Western blot. Format: cell-based. The procedure:
On day 1, 6.25×10^5 HEK293 cells were seeded per well into a 12-well plate. After 24, cells were lysed in wells with 80 ul of pre-chilled RIPA Lysis buffer (Beyotime, P0013B) with protease/phosphatase inhibitor (Roche 4693116001/Roche 04906837001) for 20 min at 4 degree on a rocker, then spun down at 20,000g at 4 degree for 10 min and the BCA assay was run. 39 ul of supernatant was transferred to a fresh EP tube containing 15 ul of 4X LDS loading buffer and 6 ul 10X reducing agent to make the loading samples. The samples were then heated to 70° C. for 10 minutes, cooled to RT, and stored under−20° C. Samples were loaded with equal amount of protein onto 4-12% Bis -Tris SDS-PAGE 26 wells gel (Novex, WG1403BOX) and the gel was run for 1.5 hours at 120 V. Electrotransfer to NC membrane was completed using wet-transfer method with 250 mA for 80 min and the membrane was blocked in 5% BSA (Solarbio,A8020) with 1X TBST for 1 hour. The samples were incubated with primary antibody prepared in blocking buffer (LI-COR, 927-60001) at 4° C. overnight and the membrane was washed three times with 1X TBST, 5 minutes each. Incubate with secondary antibody for 1 hour at RT (anti-rabbit IgG (Licor,926-32211) 1:5000; anti-mouse IgG (LI-COR, 926-68070)1:5000). The membrance was then washed three times with 1X TBST, 5 minutes each and once with RO H2O, then read on LiCOR.
In general terms: Immunoblotting shows a protein as a band on a membrane.

By IC50 is commonly meant the concentration that inhibits the measured activity by half. As to `O=C(O)Cn1cc(-c2ccccc2O)ccc1=O` [I-406], the IC50 in assay [1] and in assay [2] was greater than 5 µM each time.
Turning to `Cc1cc(C)cc(-c2ccc(=O)n(CC(=O)O)c2)c1` [I-408], the IC50 in assay [1] and in assay [2] was greater than 5 µM throughout.
Regarding `O=C(O)Cn1cc(-c2cccc3ccccc23)ccc1=O` [I-409], the IC50 in assay [1] and in assay [2] was greater than 5 µM each time.
With `Cc1ccc(C)c(-c2ccc(=O)n(CC(=O)O)c2)c1` [I-419], the IC50 in assay [1] and in assay [2] was greater than 5 µM each time.
As to `O=C(O)Cn1cc(-c2cccc(F)c2)ccc1=O` [I-420], the 50% inhibitory concentration (IC50) in assay [1] and in assay [2] was greater than 5 µM each time.
With `Cc1cccc(-c2ccc(=O)n(CC(=O)O)c2)c1` [I-422], the half-maximal inhibitory concentration (IC50) in assay [1] and in assay [2] was greater than 5 µM throughout.
As for `O=C(O)Cn1cc(-c2cccs2)ccc1=O` [I-424], the IC50 in assay [1] and in assay [2] was greater than 5 µM in each case.
Take `O=C(O)Cc1ccccc1O` [I-425]: the IC50 in assay [1] and in assay [2] was greater than 5 µM throughout.
Consider `Cc1ccc2c(c1C)NC(C(=O)O)C1CC=CC21` (stereo not shown) [I-426], for which the IC50 in assay [1] and in assay [2] was greater than 5 µM each time.
For the molecule `Nc1ccc(F)c2c(O)n[nH]c12` [I-427], the IC50 in assay [1] was 0.5 to 5 µM; in assay [2], greater than 5 µM.
As for `O=C(O)Cn1ccccc1=O` [I-428], the IC50 in assay [1] and in assay [2] was greater than 5 µM in each case.
For the molecule `O=C(O)Cn1cc(C(F)(F)F)ccc1=O` [I-429], the IC50 in assay [1] and in assay [2] was greater than 5 µM each time.
As for `COc1cc(-c2ccc(F)c(CCCCCCCCCNC(=O)C[C@@H]3N=C(c4ccc(Cl)cc4)c4c(sc(C)c4C)-n4c(C)nnc43)c2)ccc1C(=O)Nc1ccc(=O)n(CC(=O)O)c1` [I-469], the IC50 fell in the range of 0.5 to 5 µM in assay [1] and 0.05 to 0.5 µM in assay [2].
Take `COc1cc(-c2ccc(CCCCCCCCCNC(=O)C[C@@H]3N=C(c4ccc(Cl)cc4)c4c(sc(C)c4C)-n4c(C)nnc43)cc2)ccc1C(=O)Nc1ccc(=O)n(CC(=O)O)c1` [I-470]: the half-inhibitory concentration (IC50) is 0.5 to 5 µM in assay [1] and 0.05 to 0.5 µM in assay [2].
As to `Cc1sc2c(c1C)C(c1ccc(Cl)cc1)=N[C@@H](CC(=O)NCCCCCCc1ccc(C(=O)Nc3ccc(=O)n(CC(=O)O)c3)cc1-c1cccnc1)c1nnc(C)n1-2` [I-473], the IC50 is 0.05 to 0.5 µM in assay [1] and less than 0.05 µM in assay [2].
For `Cc1sc2c(c1C)C(c1ccc(Cl)cc1)=N[C@@H](CC(=O)NCCCCCCn1ccc3c(C(=O)Nc4ccc(=O)n(CC(=O)O)c4)cccc31)c1nnc(C)n1-2` [I-474] the same measures were less than 0.05 µM and less than 0.05 µM.
Taken in the same sequence, the figures for `Cc1sc2c(c1C)C(c1ccc(Cl)cc1)=N[C@@H](CC(=O)NCCCCCCc1ccncc1-c1cccc(C(=O)Nc3ccc(=O)n(CC(=O)O)c3)c1)c1nnc(C)n1-2` [I-475] were 0.05 to 0.5 µM and less than 0.05 µM.
For `Cc1sc2c(c1C)C(c1ccc(Cl)cc1)=N[C@@H](CC(=O)NCCCCCCc1cc(C(=O)Nc3ccc(=O)n(CC(=O)O)c3)cc(-c3cccnc3)c1)c1nnc(C)n1-2` [I-476] the same measures were 0.05 to 0.5 µM and less than 0.05 µM.
`Cc1sc2c(c1C)C(c1ccc(Cl)cc1)=N[C@@H](CC(=O)NCCCCCCc1cncc(-c3cccc(C(=O)Nc4ccc(=O)n(CC(=O)O)c4)c3)c1)c1nnc(C)n1-2` [I-477]: the IC50 in assay [1] and in assay [2] was less than 0.05 µM in each case.
With `Cc1sc2c(c1C)C(c1ccc(Cl)cc1)=N[C@@H](CC(=O)NCCCCCCCCCCCCCCN(C(=O)C1CCCN(c3cncc4ccccc34)C1)c1ccc(=O)n(CC(=O)O)c1)c1nnc(C)n1-2` (stereo partly shown) [I-481], the “KLHDC2-dependent BRD4 degradation” value on BRD4 (FIG. 4) is recorded as “KLHDC2-dependent BRD4 degradation”. Moreover, the BRD4 degradation entry on BRD4 (FIGS. 2-3) is recorded as “BRD4 degradation”.
